Results published in patent US5840698A, “Inhibitors of collagenase-1 and stormelysin-I metalloproteases, pharmaceutical compositions comprising same and methods of their use” (Affymax Technologies N.V., priority 1995, dated 1998).

Biological target: T1, carboxyl terminal truncated form of human stromelysin-I (Homo sapiens, UniProt P08254)
T1 construct: a carboxyl terminal truncated form of human stromelysin-I
Assay: in vitro inhibition of truncated human stromelysin-I, fluorogenic Mca-peptide assay
Format: biochemical
Settings: mercaptoalcohol compared with corresponding mercaptoketone
Protocol: For example, assays of in vitro inhibition activity against a carboxyl terminal truncated form of human stromelysin-I were conducted as follows. The buffer was prepared from 50 mM of N-[2-hydroxyethyl]piperazine-N'-[2-ethanesulfonic acid] (HEPES) (pH 7.0) containing 5 mM calcium, 0.02% of 23 lauryl ether (Brij) and 0.5 mM cysteine and was degassed by vacuum for more than 30 minutes. The methanol (MeOH), which is used for dilution of the inhibitor to the desired concentration, was degassed by bubbling argon for more than 30 minutes. For dilution, a sufficient amount of MeOH was then added to the compounds of the present invention to obtain a 10 mmol solution. For the assay, 20 μL of the MeOH/inhibitor solution was added to 460 μL of buffer, to which 20 μL of 100 nM of stromelysin was then added. The resulting solution was left for three minutes, after which time 5 μL of 100 μM of (7-methoxycoumarin-4-yl)acetyl-Pro-Leu-Gly-Leu-[3-(2',4'-dinitrophenyl)-L- 2,3-diaminopropionyl]-Ala-Arg-NH2 (Mca-peptide)(in dimethyl sulfoxide (DMSO)) was added. The fluorescence intensity increase was measured using a fluoremeter, with excitation wavelength centered around 328 nm (slit of 5 nm) and emission wavelength centered around 393 nm (slit of […]). The slope at each inhibitor concentration was then measured. The slope versus inhibition concentration was next fit into the IC50 equation of […]

T1 sequence (P08254 100-272 limits assumed): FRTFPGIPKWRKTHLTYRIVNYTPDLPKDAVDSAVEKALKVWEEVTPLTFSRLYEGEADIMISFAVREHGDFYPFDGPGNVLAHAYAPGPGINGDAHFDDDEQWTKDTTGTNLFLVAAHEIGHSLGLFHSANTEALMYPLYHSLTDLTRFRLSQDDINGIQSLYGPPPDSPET

potency against stromelysin relative to the corresponding compound (FIG. 11): more than twice as potent
SMILES: CC(C)C[C@H](CC1CSC(c2ccccc2)(c2ccccc2)O1)C(=O)N1C(=O)OC[C@@H]1Cc1ccccc1 (stereo partly shown) [FIG. 11 (3)]
